# Experiments:
# aromatase enzyme complex = target: T1, aromatase enzyme complex (Homo sapiens, UniProt P11511); conditions: irrevocably attaches the enzyme; cited from earlier work
# T1 sequence (P11511 1-503): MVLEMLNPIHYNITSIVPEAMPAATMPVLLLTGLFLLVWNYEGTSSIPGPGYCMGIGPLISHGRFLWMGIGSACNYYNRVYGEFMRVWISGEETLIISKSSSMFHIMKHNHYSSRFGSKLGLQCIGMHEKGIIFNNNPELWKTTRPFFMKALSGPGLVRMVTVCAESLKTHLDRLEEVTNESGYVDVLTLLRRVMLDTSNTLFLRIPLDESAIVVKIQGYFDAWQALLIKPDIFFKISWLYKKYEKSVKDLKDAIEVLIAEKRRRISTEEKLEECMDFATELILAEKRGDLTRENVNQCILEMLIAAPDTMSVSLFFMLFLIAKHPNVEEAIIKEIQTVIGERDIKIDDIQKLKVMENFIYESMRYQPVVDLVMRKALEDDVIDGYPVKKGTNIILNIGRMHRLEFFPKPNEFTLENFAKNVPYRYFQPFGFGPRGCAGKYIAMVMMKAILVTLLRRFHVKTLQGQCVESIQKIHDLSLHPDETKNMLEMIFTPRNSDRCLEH
# aromatase [1] = target: T2, aromatase (Homo sapiens, UniProt P11511); experiment: clinical study of peroral aromatase inhibition in man; format: in vivo; set-up: from tissue; host or cells: in vivo, human subjects (whole body); conditions: in humans
# T2 sequence (P11511 1-503): T1 sequence (P11511 1-503)
# aromatase [2] = target: T2, aromatase; conditions: androstenedione vs testosterone as aromatase substrates; cited from earlier work
SMILES,ability to aromatize to the corresponding estrogen (aromatase [2]),also measured
C[C@]12CCC(=O)C(O)=C1CC[C@@H]1[C@@H]2CC[C@]2(C)C(=O)CC[C@@H]12 [4-hydroxyandrostenedione],–,mode of aromatase inhibition (aromatase enzyme complex): suicide substrate for the aromatase enzyme complex
"C[C@]12CC[C@H]3[C@@H](CCC4=C(O)C(=O)CC[C@@]43C)[C@@H]1CC[C@@H]2O [4-hydroxytestosterone, 4,17b-dihydroxy-4-androstene-3-one]",–,efficacy as an inhibitor of aromatase compared with 4-hydroxyandrostenedione (aromatase [1]): equally high level of efficacy in humans as an inhibitor of aromatase
C[C@]12CCC(=O)C=C1CC[C@@H]1[C@@H]2CC[C@]2(C)C(=O)CC[C@@H]12 [androstenedione],both hormones aromatized with equal efficacy,–
C[C@]12CC[C@H]3[C@@H](CCC4=CC(=O)CC[C@@]43C)[C@@H]1CC[C@@H]2O [testosterone],both hormones aromatized with equal efficacy,–

# From patent publication US20030229063A1, “Use of 4-hydroxytestosterone to lower estrogen levels in humans” (priority 2002, published 2003)
